Experimental data reported in the NIST ThermoML archive (doi:10.1016/j.fluid.2018.10.006).
Several values for one entry are separate records, joined by “and”; a condition that tells them apart may be missing. Identical values can stand only once.

Conditions: Fluid (supercritical or subcritical phases), Coaxial cylinder method

CCCCCC [hexane]
Conditions | thermal conductivity
511.79 K, 4180 kPa | 0.07039 W/m/K
511.79 K, 4190 kPa | 0.07026 W/m/K
511.79 K, 4200 kPa | 0.07026 W/m/K
511.79 K, 4400 kPa | 0.07099 W/m/K
511.79 K, 4600 kPa | 0.07159 W/m/K
511.79 K, 4800 kPa | 0.07179 W/m/K
511.79 K, 5400 kPa | 0.07303 W/m/K
511.79 K, 6000 kPa | 0.074 W/m/K
511.79 K, 7000 kPa | 0.07567 W/m/K
511.79 K, 8000 kPa | 0.07705 W/m/K
511.79 K, 9000 kPa | 0.07812 W/m/K
511.79 K, 10000 kPa | 0.07922 W/m/K
513.09 K, 2634 kPa | 0.0455 W/m/K
513.09 K, 2645 kPa | 0.04562 W/m/K
513.09 K, 2653 kPa | 0.04575 W/m/K
513.09 K, 2654 kPa | 0.04575 W/m/K
513.09 K, 2655 kPa | 0.04575 W/m/K
513.09 K, 2661 kPa | 0.04587 W/m/K
513.09 K, 2722 kPa | 0.04549 W/m/K
513.09 K, 2740 kPa | 0.04678 W/m/K
513.09 K, 2760 kPa | 0.04705 W/m/K
513.09 K, 2763 kPa | 0.04704 W/m/K
513.09 K, 2839 kPa | 0.04831 W/m/K
513.09 K, 2849 kPa | 0.04859 W/m/K
513.09 K, 2879 kPa | 0.04916 W/m/K
513.09 K, 2894 kPa | 0.04931 W/m/K
513.09 K, 2909 kPa | 0.0496 W/m/K
513.09 K, 2931 kPa | 0.05008 W/m/K
513.09 K, 2953 kPa | 0.05053 W/m/K
513.09 K, 2983 kPa | 0.05146 W/m/K
513.09 K, 3010 kPa | 0.05237 W/m/K
513.09 K, 3034 kPa | 0.05319 W/m/K
513.09 K, 3054 kPa | 0.05386 W/m/K
513.09 K, 3098 kPa | 0.05597 W/m/K
513.09 K, 3114 kPa | 0.05684 W/m/K
513.09 K, 3152 kPa | 0.05939 W/m/K
513.09 K, 3163 kPa | 0.06043 W/m/K
513.09 K, 3169 kPa | 0.06085 W/m/K
513.09 K, 3176 kPa | 0.06151 W/m/K
513.09 K, 3180 kPa | 0.06217 W/m/K
513.09 K, 3184 kPa | 0.06262 W/m/K
513.09 K, 3186 kPa | 0.06285 W/m/K
513.09 K, 3193 kPa | 0.06308 W/m/K
513.09 K, 3195 kPa | 0.06308 W/m/K
513.09 K, 3200 kPa | 0.06331 W/m/K
513.09 K, 3205 kPa | 0.06425 W/m/K
513.09 K, 3207 kPa | 0.06497 W/m/K
513.09 K, 3212 kPa | 0.06596 W/m/K
513.09 K, 3216 kPa | 0.06647 W/m/K
513.09 K, 3231 kPa | 0.06898 W/m/K
513.09 K, 3232 kPa | 0.06917 W/m/K
513.09 K, 3234 kPa | 0.06942 W/m/K
513.09 K, 3235 kPa | 0.06951 W/m/K
513.09 K, 3236 kPa | 0.06967 W/m/K
513.09 K, 3237 kPa | 0.06987 W/m/K
513.09 K, 3238 kPa | 0.07001 W/m/K
513.09 K, 3240 kPa | 0.07024 W/m/K
513.09 K, 3242 kPa | 0.07052 W/m/K
513.09 K, 3243 kPa | 0.07067 W/m/K
513.09 K, 3244 kPa | 0.07081 W/m/K
513.09 K, 3246 kPa | 0.0711 W/m/K
513.09 K, 3247 kPa | 0.07125 W/m/K
513.09 K, 3248 kPa | 0.07133 W/m/K
513.09 K, 3249 kPa | 0.07154 W/m/K
513.09 K, 3251 kPa | 0.07169 W/m/K
513.09 K, 3252 kPa | 0.07184 W/m/K
513.09 K, 3253 kPa | 0.07198 W/m/K
513.09 K, 3254 kPa | 0.07213 W/m/K
513.09 K, 3255 kPa | 0.07228 W/m/K
513.09 K, 3256 kPa | 0.07243 W/m/K
513.09 K, 3257 kPa | 0.07258 W/m/K
513.09 K, 3258 kPa | 0.07265 W/m/K
513.09 K, 3260 kPa | 0.07284 W/m/K
513.09 K, 3261 kPa | 0.07295 W/m/K and 0.073 W/m/K
513.09 K, 3262 kPa | 0.07311 W/m/K
513.09 K, 3263 kPa | 0.07319 W/m/K
513.09 K, 3265 kPa | 0.07338 W/m/K
513.09 K, 3266 kPa | 0.07346 W/m/K
513.09 K, 3267 kPa | 0.07354 W/m/K
513.09 K, 3274 kPa | 0.07412 W/m/K
513.09 K, 3277 kPa | 0.07428 W/m/K
513.09 K, 3279 kPa | 0.07428 W/m/K
